Assays:
human TLR7 = target: T1, human TLR7 (Homo sapiens, UniProt Q9NYK1); assay: HEK-Blue hTLR7 reporter cell assay (SEAP, NF-kB/AP-1) for stimulation of human TLR7; type: cell-based; conditions: HEK-Blue hTLR7 cells, 24 h incubation, SEAP readout; read-out: TLR7_EC50
T1 construct: host or cells: HEK293 (HEK-Blue hTLR7)
T1 sequence (Q9NYK1 27-1049): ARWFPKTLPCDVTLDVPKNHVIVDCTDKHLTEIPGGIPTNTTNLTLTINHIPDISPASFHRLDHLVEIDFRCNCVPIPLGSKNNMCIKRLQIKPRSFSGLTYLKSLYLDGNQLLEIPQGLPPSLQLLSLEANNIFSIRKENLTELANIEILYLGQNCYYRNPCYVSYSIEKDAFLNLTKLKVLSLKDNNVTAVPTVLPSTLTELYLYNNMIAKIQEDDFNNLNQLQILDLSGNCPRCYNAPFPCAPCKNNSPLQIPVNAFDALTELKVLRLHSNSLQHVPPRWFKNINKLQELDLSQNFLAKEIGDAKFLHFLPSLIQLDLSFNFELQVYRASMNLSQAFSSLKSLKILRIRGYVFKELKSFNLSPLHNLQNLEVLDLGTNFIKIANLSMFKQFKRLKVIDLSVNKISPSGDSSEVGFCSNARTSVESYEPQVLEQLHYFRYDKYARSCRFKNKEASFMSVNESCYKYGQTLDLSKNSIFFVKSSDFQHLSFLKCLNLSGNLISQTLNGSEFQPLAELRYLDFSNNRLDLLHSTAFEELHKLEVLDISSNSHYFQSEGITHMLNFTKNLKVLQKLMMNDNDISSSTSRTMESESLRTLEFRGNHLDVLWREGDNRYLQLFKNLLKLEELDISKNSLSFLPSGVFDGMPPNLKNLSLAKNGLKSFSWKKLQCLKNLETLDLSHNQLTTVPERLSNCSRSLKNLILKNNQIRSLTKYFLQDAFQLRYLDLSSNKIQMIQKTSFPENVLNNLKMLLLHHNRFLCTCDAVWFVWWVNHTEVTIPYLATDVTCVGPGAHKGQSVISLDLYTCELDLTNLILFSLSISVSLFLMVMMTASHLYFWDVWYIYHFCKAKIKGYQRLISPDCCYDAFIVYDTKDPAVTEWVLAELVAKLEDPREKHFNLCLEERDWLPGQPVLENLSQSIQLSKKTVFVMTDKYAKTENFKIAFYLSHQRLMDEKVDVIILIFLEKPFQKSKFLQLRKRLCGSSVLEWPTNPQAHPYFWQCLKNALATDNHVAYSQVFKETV
Method: (§1) The below tests, involving measuring the in vitro activity of some compounds of the disclosure on TLR7 and TLR8, were carried out using the HEK-Blue™ cells as reporter.
The activity described below, with respect to TLR7, TLR8, IFN-α2a, IL-6, IL29 and TNF-α, is given by the half maximal effective concentration (EC50), which corresponds to the concentration required to obtain a 50% of the activation. The lower the EC50, the less the concentration of the compound is required to produce 50% of maximum activation and the higher the potency.
(§2) In Vitro Assay for Studying the Stimulation of Human TLR7 and TLR8:
(§3) HEK-Blue™ hTLR7 Cells (#hkb-htlr7) and HEK-Blue™ hTLR8 Cells (#hkb-htlr8) from InvivoGen were used according to the manufacturer's instructions. These Reporter HEK293 cells were obtained by co-transfection of the hTLR7 or TLR8 gene and an optimized Secreted Embryonic Alkaline Phosphatase (SEAP) reporter gene which is placed under the control of the IFN-β minimal promoter fused to five NF-κB and AP-1-binding sites. Stimulation with a TLR7/8 ligand activates NF-kB and AP-1 which induce the production of SEAP. The cells are seeded in 96-well plate at 3.10E4 cells/well and incubated 18 to 24 h at 37° C., 5% CO2 before adding the compounds to evaluate. The cells are subsequently incubated with 3-fold serial dilutions of each of the compounds (0.01 to 20 μM) for 24 hours at 37° C., 5% CO2. Next, 20 μL of the supernatant is harvested and incubated with 200 μL of QUANTI-Blue™ Solution.

human TLR8 = target: T2, human TLR8 (Homo sapiens, UniProt Q9NR97); assay: HEK-Blue hTLR8 reporter cell assay (SEAP, NF-kB/AP-1) for stimulation of human TLR8; type: cell-based; conditions: HEK-Blue hTLR8 cells, 24 h incubation, SEAP readout; read-out: TLR8_EC50
T2 construct: host or cells: HEK293 (HEK-Blue hTLR8)
T2 sequence (Q9NR97 27-1041): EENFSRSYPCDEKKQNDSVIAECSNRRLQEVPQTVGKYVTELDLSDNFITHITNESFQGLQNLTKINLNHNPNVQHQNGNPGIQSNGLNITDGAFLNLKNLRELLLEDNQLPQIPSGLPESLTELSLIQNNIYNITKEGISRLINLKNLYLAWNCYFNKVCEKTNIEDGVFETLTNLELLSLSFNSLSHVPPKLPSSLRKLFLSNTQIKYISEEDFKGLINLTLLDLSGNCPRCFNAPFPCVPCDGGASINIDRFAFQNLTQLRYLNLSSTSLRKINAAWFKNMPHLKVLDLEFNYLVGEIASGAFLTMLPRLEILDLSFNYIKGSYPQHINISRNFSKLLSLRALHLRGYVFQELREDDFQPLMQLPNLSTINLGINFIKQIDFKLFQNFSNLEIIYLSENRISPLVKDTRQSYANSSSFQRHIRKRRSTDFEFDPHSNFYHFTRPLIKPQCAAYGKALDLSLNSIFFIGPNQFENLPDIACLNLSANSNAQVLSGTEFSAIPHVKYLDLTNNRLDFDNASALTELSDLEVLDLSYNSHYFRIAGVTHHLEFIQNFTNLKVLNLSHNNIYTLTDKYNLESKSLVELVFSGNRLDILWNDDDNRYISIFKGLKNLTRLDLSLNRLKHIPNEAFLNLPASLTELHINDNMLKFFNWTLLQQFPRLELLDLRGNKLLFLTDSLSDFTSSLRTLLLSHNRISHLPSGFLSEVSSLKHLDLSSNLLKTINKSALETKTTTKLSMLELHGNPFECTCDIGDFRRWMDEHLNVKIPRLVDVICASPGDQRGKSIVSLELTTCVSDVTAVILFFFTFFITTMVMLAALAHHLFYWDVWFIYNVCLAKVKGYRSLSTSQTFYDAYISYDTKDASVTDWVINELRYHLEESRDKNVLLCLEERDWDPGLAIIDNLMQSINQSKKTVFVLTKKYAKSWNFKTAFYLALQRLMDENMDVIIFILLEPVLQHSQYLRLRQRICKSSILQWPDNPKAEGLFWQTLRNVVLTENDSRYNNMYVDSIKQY
Method: as §1, §2
as §3, with “The cells are subsequently incubated with 3-fold serial dilutions of each of the compounds (0.01 to 20 μM) for 24 hours at 37° C., 5% CO2.” left out

Structure (SMILES)	EC50 (human TLR7)	EC50 (human TLR8)
CCCCCCCCCCC(=O)NCc1ccc(Cn2c(CCCC)nc3c(N)nnc(OC(C)C)c32)cc1 [Compound 29, N-(4-((4-amino-2-butyl-7-isopropoxy-1H-imidazo[4,5-d]pyridazin-1-yl)methyl)benzyl)undecanamide]	117 nM	> 20000 nM
CCCCC(=O)NCc1ccc(Cn2c(CCCC)nc3c(N)nnc(OC(C)C)c32)cc1 [Compound 30, N-(4-((4-amino-2-butyl-7-isopropoxy-1H-imidazo[4,5-d]pyridazin-1-yl)methyl)benzyl)pentanamide]	161 nM	> 20000 nM
CCCCc1nc2c(N)nnc(OC(C)C)c2n1Cc1ccc(CNC(=O)CCOCCOC)cc1 [Compound 31, N-(4-((4-amino-2-butyl-7-isopropoxy-1H-imidazo[4,5-d]pyridazin-1-yl)methyl)benzyl)-3-(2-methoxyethoxy)propanamide]	326 nM	> 20000 nM
CCCCc1nc2c(N)nnc(OC(C)C)c2n1Cc1ccc(CNC2CC2)cc1 [Compound 36, 2-butyl-1-(4-((cyclopropylamino)methyl)benzyl)-7-isopropoxy-1H-imidazo[4,5-d]pyridazin-4-amine]	19 nM	448 nM
CCCCc1nc2c(N)nnc(OC(C)C)c2n1Cc1ccc(CNC2CS(=O)(=O)C2)cc1 [Compound 37, 3-((4-((4-amino-2-butyl-7-isopropoxy-1H-imidazo[4,5-d]pyridazin-yl)methyl)benzyl)amino)thietane 1,1-dioxide]	317 nM	> 20000 nM
CCCCc1nc2c(N)nnc(OC(C)C)c2n1Cc1ccc(CN(C(C)=O)C2CS(=O)(=O)C2)cc1 [Compound 38, N-(4-((4-amino-2-butyl-7-isopropoxy-1H-imidazo[4,5-d]pyridazin-1-yl)methyl)benzyl)-N-(1,1-dioxidothietan-3-yl)acetamide]	345 nM	14700 nM
CCCCc1nc2c(N)nnc(OC(C)C)c2n1Cc1ccc(CNC2(C)CCC2)cc1 [Compound 39, 2-butyl-7-isopropoxy-1-(4-(((1-methylcyclobutyl)amino)methyl)benzyl)-1H-imidazo[4,5-d]pyridazin-4-amine]	17 nM	401 nM
CCCCc1nc2c(N)nnc(OC(C)C)c2n1Cc1ccc(CN2CCNCC2)cc1 [Compound 40, 2-butyl-7-isopropoxy-1-(4-(piperazin-1-ylmethyl)benzyl)-1H-imidazo[4,5-d]pyridazin-4-amine]	21 nM	2290 nM
CCCCc1nc2c(N)nnc(N3CCCC3)c2n1C [Compound 42, 2-butyl-1-methyl-7-(pyrrolidin-1-yl)-1H-imidazo[4,5-d]pyridazin-4-amine]	1480 nM	8780 nM
CCCCc1nc2c(N)nnc(N(C)Cc3ccc(CN4CCOCC4)cc3)c2n1C [Compound 44, 2-butyl-N7,1-dimethyl-N7-(4-(morpholinomethyl)benzyl)-1H-imidazo[4,5-d]pyridazine-4,7-diamine]	1130 nM	467 nM
CCCCc1nc2c(N)nnc(N(C)Cc3ccc(C#N)cc3)c2n1C [Compound 45, 4-(((4-amino-2-butyl-1-methyl-1H-imidazo[4,5-d]pyridazin-7-yl)(methyl)amino)methyl)benzonitrile]	> 20000 nM	9420 nM
CCCCc1nc2c(N)nnc(N(C)Cc3ccc(CN)cc3)c2n1C [Compound 46, N7-(4-(aminomethyl)benzyl)-2-butyl-N7,1-dimethyl-1H-imidazo[4,5-d]pyridazine-4,7-diamine]	6140 nM	4070 nM
CCCCc1nc2c(N)nnc(N(C)Cc3ccc(CN(C)CCOC)cc3)c2n1C [Compound 47, 2-butyl-N7-(4-(((2-methoxyethyl)(methyl)amino)methyl)benzyl)-N7,1-dimethyl-1H-imidazo[4,5-d]pyridazine-4,7-diamine]	421 nM	223 nM
CCCCc1nc2c(N)nnc(OC)c2n1Cc1ccc(OC)cc1 [Compound 50, 2-butyl-7-methoxy-1-(4-methoxybenzyl)-1H-imidazo[4,5-d]pyridazin-4-amine]	269 nM	> 20000 nM
CCCCc1nc2c(N)nnc(C3CCCCC3)c2n1Cc1ccc(OC)cc1 [Compound 51, 2-butyl-7-cyclohexyl-1-(4-methoxybenzyl)-1H-imidazo[4,5-d]pyridazin-4-amine]	1020 nM	> 20000 nM
CCCCc1nc2c(N)nnc(OCc3ccccc3)c2n1Cc1ccc(OC)cc1 [Compound 52, 7-(benzyloxy)-2-butyl-1-(4-methoxybenzyl)-1H-imidazo[4,5-d]pyridazin-4-amine]	551 nM	> 20000 nM
CCCCc1nc2c(N)nnc(NC)c2n1Cc1ccc(OC)cc1 [Compound 53, 2-butyl-1-(4-methoxybenzyl)-N7-methyl-1H-imidazo[4,5-d]pyridazine-4,7-diamine]	775 nM	> 20000 nM
CCCCc1nc2c(N)nnc(O[C@H]3CCOC3)c2n1Cc1ccc(OC)cc1 [Compound 54, (S)-2-butyl-1-(4-methoxybenzyl)-7-((tetrahydrofuran-3-yl)oxy)-1H-imidazo[4,5-d]pyridazin-4-amine]	610 nM	> 20000 nM

Source: US12583861B2, “Derivatives of imidazo[4,5-d]pyridazine, their preparation and their therapeutic application” (SANOFI, priority 2021, dated 2026)
